Measurements from article PMC12016531 (Applied and Environmental Microbiology, 2025).

What was measured:
[1] = system: L. monocytogenes LM201; experiment: MIC/MBC microdilution; type: cell-based, Listeria monocytogenes; details: lowest concentration that killed 99.9%; TSB-YE; highest concentration 100 µM
[2] = system: L. monocytogenes ATCC 51780; experiment: MIC/MBC microdilution; type: cell-based, Listeria monocytogenes; details: lowest concentration that killed 99.9%; TSB-YE; highest concentration 100 µM
[3] = system: L. monocytogenes CMCC 54002; experiment: MIC/MBC microdilution; type: cell-based, Listeria monocytogenes; details: lowest concentration that killed 99.9%; TSB-YE; highest concentration 100 µM
[4] = system: L. monocytogenes CICC 21632; experiment: MIC/MBC microdilution; type: cell-based, Listeria monocytogenes; details: lowest concentration that killed 99.9%; TSB-YE; highest concentration 100 µM
[5] = system: Bacillus cereus CMCC63301; experiment: Time-kill curves (OD600 and CFU); type: cell-based
From the text: (§1) Cell growth was monitored hourly by measuring CFU on TSB plates and OD600 values of the cultures.

[6] = system: L. monocytogenes ATCC 7644; experiment: MIC/MBC microdilution; type: cell-based, Listeria monocytogenes; details: lowest concentration that killed 99.9%; TSB-YE; highest concentration 100 µM
[7] = system: L. monocytogenes NCT0890; experiment: MIC/MBC microdilution; type: cell-based, Listeria monocytogenes; details: lowest concentration that killed 99.9%; TSB-YE; highest concentration 100 µM
[8] = system: L. monocytogenes ATCC 19112; experiment: MIC/MBC microdilution; type: cell-based, Listeria monocytogenes; details: lowest concentration that killed 99.9%; TSB-YE; highest concentration 100 µM
[9] = system: L. monocytogenes ATCC 19114; experiment: MIC/MBC microdilution; type: cell-based, Listeria monocytogenes; details: lowest concentration that killed 99.9%; TSB-YE; highest concentration 100 µM
[10] = system: L. monocytogenes ATCC 19117; experiment: MIC/MBC microdilution; type: cell-based, Listeria monocytogenes; details: lowest concentration that killed 99.9%; TSB-YE; highest concentration 100 µM
[11] = system: L. monocytogenes ATCC 19118; experiment: MIC/MBC microdilution; type: cell-based, Listeria monocytogenes; details: lowest concentration that killed 99.9%; TSB-YE; highest concentration 100 µM
[12] = system: B. subtilis CMCC63501; experiment: Stability: residual antimicrobial activity by agar diffusion; type: physicochemical, Bacillus subtilis; details: up to 12 h
Experimental: After treatment for 2, 4, 6, 8, 10, and 12 h, the residual antimicrobial activity of the samples was measured using the agar diffusion method, with B. subtilis CMCC63501 as the indicator strain.

[13] = system: L. monocytogenes ATCC19111; experiment: Time-kill curves (OD600 and CFU); type: cell-based, Listeria monocytogenes
From the text: as §1

[14] = system: L. monocytogenes ATCC 19116; experiment: MIC/MBC microdilution; type: cell-based, Listeria monocytogenes; details: lowest concentration that killed 99.9%; TSB-YE; highest concentration 100 µM
[15] = system: L. monocytogenes ATCC19111; experiment: Potassium release and SEM (cell membrane damage); type: cell-based, Listeria monocytogenes; details: potassium release 1×, 8×, 32× MIC, 1 h; SEM 8× and 32× MIC, 3 h, 30°C
Experimental: The amount of potassium released was measured using a HI96750 Potassium Photometer.
Bacillus cereus CMCC63301 and L. monocytogenes ATCC19111 were grown in TSB medium to an OD600 of 0.3. […] The cells were harvested after centrifugation (6,000 × g, 10 min), washed with PBS buffer thrice, and fixed with 2.5% (vol/vol) glutaraldehyde for 12 h at 4°C. Subsequently, the cells were subjected to gradient dehydration for 10 min, treated with isoamyl acetate for 10 min, dried with a lyophilizer for 12 h, coated with gold-palladium, and observed using a Zeiss Gemini360 instrument ([18]).

[16] = system: Klebsiella pneumoniae CMCC 46117; experiment: MIC/MBC microdilution; type: cell-based; details: NB, highest concentration 100 µM
Experimental: (§2) The microdilution method ([25]) was used to measure the MIC of mycoidesin against indicator strains (Table S2). HPLC-purified mycoidesin was weighed and dissolved in a liquid culture medium to prepare various concentrations of mycoidesin (200.00, 100.00, 50.00, 25.00, 12.50, 6.25, 3.13, 1.56, 0.78, 0.39, 0.20, and 0.10 µM). A volume of 50 µL of different concentrations of mycoidesin solutions and 50 µL culture (1 × 10^6 CFU/mL) of the indicator strain were mixed in 96-well plates. The final concentrations of mycoidesin were 100.00, 50.00, 25.00, 12.50, 6.25, 3.13, 1.56, 0.78, 0.39, 0.20, 0.10, and 0.05 µM. […] The minimum bactericidal concentration (MBC) was the lowest concentration that killed 99.9% of the bacterial population. Nisin A was purified (Cayman Chemical, USA) as previously described ([26]) and was used to measure and compare the MIC values of L. monocytogenes strains and mycoidesin.

[17] = system: Salmonella enterica serotype Paratyphi CMCC 50093; experiment: MIC/MBC microdilution; type: cell-based; details: NB, highest concentration 100 µM
Experimental: as §2

[18] = system: Shigella serogroups CMCC 51105; experiment: MIC/MBC microdilution; type: cell-based; details: NB, highest concentration 100 µM
Experimental: as §2

[19] = system: Escherichia coli ATCC 25922; experiment: MIC/MBC microdilution; type: cell-based; details: NB, highest concentration 100 µM
Experimental: as §2

[20] = system: Acinetobacter baumannii ATCC 19606; experiment: MIC/MBC microdilution; type: cell-based; details: NB, highest concentration 100 µM
Experimental: as §2

[21] = system: Salmonella Typhimurium ATCC 14028; experiment: MIC/MBC microdilution; type: cell-based; details: NB, highest concentration 100 µM
Experimental: as §2

[22] = system: Serratia marcescens CMCC 41002; experiment: MIC/MBC microdilution; type: cell-based; details: NB, highest concentration 100 µM
Experimental: as §2

[23] = system: Pseudomonas aeruginosa ATCC 27853; experiment: MIC/MBC microdilution; type: cell-based; details: NB, highest concentration 100 µM
Experimental: as §2

[24] = lowest concentration that killed 99.9%

C/C=C1\NC(=O)CNC(=O)[C@H](CCSC)NC(=O)[C@@H]2CS[C@@H](C)[C@@H](NC(=O)[C@@H]3CSC[C@@H](NC(=O)[C@H](CC(C)C)NC(=O)[C@H](CC(N)=O)NC(=O)[C@@H](N)Cc4ccc(O)cc4)C(=O)N[C@@H](C)C(=O)N[C@@H](C)C(=O)N[C@@H]([C@@H](C)CC)C(=O)N[C@@H](C)C(=O)N[C@@H](CC(=O)O)C(=O)N[C@@H](C)C(=O)N[C@@H](C)C(=O)NCC(=O)N[C@@H](CC(C)C)C(=O)N[C@@H](CCCCN)C(=O)NCC(=O)N[C@@H](CC(N)=O)C(=O)N[C@@H](Cc4ccc(O)cc4)C(=O)NCC(=O)N[C@@H](CCCCN)C(=O)N[C@@H](Cc4ccccc4)C(=O)N3)C(=O)N[C@@H](Cc3ccc(O)cc3)C(=O)N[C@H](CSC[C@@H](C(=O)NCC(=O)N[C@@H](CO)C(=O)O)NC(=O)[C@H](CO)NC(=O)[C@H](C(C)C)NC1=O)C(=O)N[C@@H](C)C(=O)N[C@@H](CCC(=O)O)C(=O)N2 [mycoidesin]
MBC [1]: NA (No activity was detected even at the highest concentration of mycoidesin (100 µM))
MBC [2]: NA (No activity was detected even at the highest concentration of mycoidesin (100 µM))
MBC [3]: NA (No activity was detected even at the highest concentration of mycoidesin (100 µM))
MBC [4]: NA (No activity was detected even at the highest concentration of mycoidesin (100 µM))
effect on growth ([5]; 1× MIC (1.56 µM), TSB, 30°C, 3 h, OD600 and CFU): suppressed the growth
effect on growth ([5]; 2× MIC (3.13 µM), TSB, 30°C, 3 h, OD600 and CFU): completely inhibited its growth
effect on viable cells ([5]; 4× and 8× MIC (6.25 and 12.50 µM), TSB, 30°C, 3 h, OD600 and CFU): caused cell death after 2 h of treatment
type of antimicrobial effect ([5]; high concentrations (2×–8× MIC, 3.13–12.5 µM)): bactericidal effect
type of antimicrobial effect ([5]; low concentration (1× MIC, 1.56 µM)): bacteriostatic effect
MBC [6]: NA (No activity was detected even at the highest concentration of mycoidesin (100 µM))
MBC [7]: NA (No activity was detected even at the highest concentration of mycoidesin (100 µM))
MBC [8]: NA (No activity was detected even at the highest concentration of mycoidesin (100 µM))
MBC [9]: NA (No activity was detected even at the highest concentration of mycoidesin (100 µM))
MBC [10]: NA (No activity was detected even at the highest concentration of mycoidesin (100 µM))
MBC [11]: NA (No activity was detected even at the highest concentration of mycoidesin (100 µM))
residual antimicrobial activity ([12]; pH 7.0, 37°C, mycoidesin 6.25 µM, nisin A 12.5 µM (4× MIC)): remained unchanged
residual antimicrobial activity ([12]; pH 7.0, 60°C, mycoidesin 6.25 µM (4× MIC)): decreased with increasing incubation time
residual antimicrobial activity ([12]; pH 8.0, 37°C, mycoidesin 6.25 µM, nisin A 12.5 µM (4× MIC)): decreased
residual antimicrobial activity ([12]; pH 8.0, 60°C, mycoidesin 6.25 µM (4× MIC)): decreased with increasing incubation time
effect on growth ([13]; 1×–32× MIC (0.39–12.5 µM), TSB, 30°C, 3 h, OD600): suppressed by mycoidesin in a time- and concentration-dependent manner
type of antimicrobial effect ([13]; low and high concentrations (1×–32× MIC, 0.39–12.5 µM)): bacteriostatic activity
cell death (viable count) ([13]; up to 32× MIC (12.5 µM), 30°C, 3 h, CFU): did not cause L. monocytogenes cell membrane damage or cell death
MBC [14]: NA (No activity was detected even at the highest concentration of mycoidesin (100 µM))
cell membrane damage [15]: did not cause L. monocytogenes cell membrane damage or cell death
MBC [16, 24]: NA (No activity was detected even at the highest concentration of mycoidesin (100 µM))
MIC ([16]; microdilution, 30°C, 16 h): NA (No activity was detected even at the highest concentration of mycoidesin (100 µM))
MBC [17, 24]: NA (No activity was detected even at the highest concentration of mycoidesin (100 µM))
MIC ([17]; microdilution, 30°C, 16 h): NA (No activity was detected even at the highest concentration of mycoidesin (100 µM))
MBC [18, 24]: NA (No activity was detected even at the highest concentration of mycoidesin (100 µM))
MIC ([18]; microdilution, 30°C, 16 h): NA (No activity was detected even at the highest concentration of mycoidesin (100 µM))
MBC [19, 24]: NA (No activity was detected even at the highest concentration of mycoidesin (100 µM))
MIC ([19]; microdilution, 30°C, 16 h): NA (No activity was detected even at the highest concentration of mycoidesin (100 µM))
MBC [20, 24]: NA (No activity was detected even at the highest concentration of mycoidesin (100 µM))
MIC ([20]; microdilution, 30°C, 16 h): NA (No activity was detected even at the highest concentration of mycoidesin (100 µM))
MBC [21, 24]: NA (No activity was detected even at the highest concentration of mycoidesin (100 µM))
MIC ([21]; microdilution, 30°C, 16 h): NA (No activity was detected even at the highest concentration of mycoidesin (100 µM))
MBC [22, 24]: NA (No activity was detected even at the highest concentration of mycoidesin (100 µM))
MIC ([22]; microdilution, 30°C, 16 h): NA (No activity was detected even at the highest concentration of mycoidesin (100 µM))
MBC [23, 24]: NA (No activity was detected even at the highest concentration of mycoidesin (100 µM))
MIC ([23]; microdilution, 30°C, 16 h): NA (No activity was detected even at the highest concentration of mycoidesin (100 µM))
